Test results as given in the supplement of paper PMC7840683.
Counter-ions that a name gives are not always drawn.

Tested on: HepaRG
Assay: LDH release cytotoxicity, % of total lysis control; higher = more cytotoxic
Details: 48 h
Summary of the method: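 The CytoTox-ONE kit was used to read LDH in 50 µL spent medium as resorufin fluorescence on a Tecan Safire, with 0.1% Triton X added to total lysis wells. Beforehand, single-lot HepaRG cells on collagen I-coated 96-well plates had been exposed in duplicate for 48 h to eight-point half-log series (top 100 µM) in serum-free induction medium containing 0.5% DMSO. Percent cytotoxicity was normalized against on-plate vehicle and total lysis controls and averaged over duplicates.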

CCOc1cc(C(C)(C)C)ccc1C1COC(c2c(F)cccc2F)=N1 (stereo not drawn) [Etoxazole]
Details	LDH release cytotoxicity [%]
0.020871 µM	-3.18
0.066 µM	-1.79
0.20871 µM	-2.56
0.66 µM	-3.05
2.0871 µM	-2.64
6.6 µM	-2.88
20.871 µM	-2.37
66 µM	5.91

C=CCc1ccc(O)c(OC)c1 [Eugenol]
Details	LDH release cytotoxicity [%]
0.03162 µM	-2.2
0.1 µM	-1.91
0.3162278 µM	-1.79
1 µM	-2.07
3.16228 µM	-2.07
10 µM	-1.74
31.6228 µM	-0.896
100 µM	-0.336

CCN(Cc1cccc(S(=O)(=O)O)c1)c1ccc(C(=C2C=CC(=[N+](CC)Cc3cccc(S(=O)(=O)O)c3)C=C2)c2ccccc2S(=O)(=O)O)cc1 [FD&C Blue No. 1]
Details	LDH release cytotoxicity [%]
0.0204 µM	-1.63
0.0645 µM	-0.475
0.203967 µM	-1.54
0.645 µM	-1.35
2.03967 µM	-1.04
6.45 µM	-0.732
20.3967 µM	-1.07
64.5 µM	-1.76

O=S(=O)(O)c1ccc(N=Nc2c(O)ccc3cc(S(=O)(=O)O)ccc23)cc1 [FD&C Yellow 6]
Details	LDH release cytotoxicity [%]
0.03162 µM	-2.21
0.1 µM	-2.28
0.3162278 µM	-3.01
1 µM	-3.07
3.16228 µM	-4.37
10 µM	-4.81
31.6228 µM	-4.8
100 µM	-4.65

Cc1nc[nH]c1CC1CCc2c(C)c3ccccc3n2C1=O (stereo not drawn) [Fabesetron hydrochloride]
Details	LDH release cytotoxicity [%]
0.0281443 µM	-1.11
0.089 µM	-1.43
0.281443 µM	-1.19
0.89 µM	-1.4
2.81443 µM	-1.38
8.9 µM	-0.0311
28.144271 µM	43.7
89 µM	76.2

CC1(c2ccc(Oc3ccccc3)cc2)OC(=O)N(Nc2ccccc2)C1=O (stereo not drawn) [Famoxadone]
Details	LDH release cytotoxicity [%]
0.0317809 µM	-0.255
0.1005 µM	-1.03
0.317809 µM	-0.879
1.005 µM	-1.52
3.17809 µM	-2.56
10.05 µM	10.7
31.7809 µM	18.1
100.5 µM	64.5

CCc1cc(C2=C(C(=O)O)N(c3ccccc3C(F)(F)F)S(=O)(=O)c3ccccc32)cc2c1OCO2 [Fandosentan potassium salt]
Details	LDH release cytotoxicity [%]
0.03162 µM	-0.538
0.1 µM	-0.00891
0.3162278 µM	-0.491
1 µM	-0.769
3.16228 µM	-0.525
10 µM	-0.587
31.6228 µM	2.28
100 µM	48.4

Cc1oc(-c2ccccc2)nc1CCOc1ccc(CC(Nc2ccccc2C(=O)c2ccccc2)C(=O)O)cc1 (stereo not drawn) [Farglitazar]
Details	LDH release cytotoxicity [%]
0.03162 µM	-1.27
0.1 µM	-1.73
0.3162278 µM	-0.126
1 µM	-1.05
3.16228 µM	-2.03
10 µM	-1.81
31.6228 µM	67.1
100 µM	78.6

CSC1=NC(C)(c2ccccc2)C(=O)N1Nc1ccccc1 (stereo not drawn) [Fenamidone]
Details	LDH release cytotoxicity [%]
0.03162 µM	-1.05
0.1 µM	-1.31
0.3162278 µM	-1.11
1 µM	-1.54
3.16228 µM	-1.63
10 µM	-2.26
31.6228 µM	6.59
100 µM	15.2

CN(C)c1ccc(N=NS(=O)(=O)O)cc1 [Fenaminosulf]
Details	LDH release cytotoxicity [%]
0.03162 µM	-1.38
0.1 µM	-1.18
0.3162278 µM	-1.97
1 µM	-2.42
3.16228 µM	-2.64
10 µM	-3.4
31.6228 µM	-3.39
100 µM	-3.64

CCOP(=O)(NC(C)C)Oc1ccc(SC)c(C)c1 (stereo not drawn) [Fenamiphos]
Details	LDH release cytotoxicity [%]
0.03162 µM	-1.16
0.1 µM	-1.81
0.3162278 µM	-1.38
1 µM	-1.28
3.16228 µM	-1.13
10 µM	-1.56
31.6228 µM	-1.03
100 µM	0.0773

OC(c1ccc(Cl)cc1)(c1cncnc1)c1ccccc1Cl (stereo not drawn) [Fenarimol]
Details	LDH release cytotoxicity [%]
0.031623 µM	-1.68
0.1 µM	-0.827
0.316228 µM	-0.805
1 µM	-2.32
3.16228 µM	-0.581
10 µM	0.969
31.6228 µM	2.21
100 µM	15.4

N#CC(CCc1ccc(Cl)cc1)(Cn1cncn1)c1ccccc1 (stereo not drawn) [Fenbuconazole]
Details	LDH release cytotoxicity [%]
0.03162 µM	-0.994
0.1 µM	-0.764
0.3162278 µM	-0.539
1 µM	-0.261
3.16228 µM	-0.9
10 µM	-0.281
31.6228 µM	5.08
100 µM	31.3

CC1(C(=O)Nc2ccc(O)c(Cl)c2Cl)CCCCC1 [Fenhexamid]
Details	LDH release cytotoxicity [%]
0.031623 µM	-0.566
0.1 µM	-4.08
0.316228 µM	-4.43
1 µM	-3.83
3.16228 µM	-3.52
10 µM	-3.56
31.6228 µM	-3.14
100 µM	-0.0455

COP(=S)(OC)Oc1ccc([N+](=O)[O-])c(C)c1 [Fenitrothion]
Details	LDH release cytotoxicity [%]
0.03162 µM	-1.98
0.1 µM	-2.13
0.3162278 µM	-0.603
1 µM	-1.11
3.16228 µM	-0.939
10 µM	-0.576
31.6228 µM	-0.104
100 µM	0.45

CC(C)OC(=O)C(C)(C)Oc1ccc(C(=O)c2ccc(Cl)cc2)cc1 [Fenofibrate]
Details	LDH release cytotoxicity [%]
0.03162 µM	-0.938
0.1 µM	-0.368
0.3162278 µM	-0.7726
1 µM	-1.53
3.16228 µM	-0.41
10 µM	-0.735
31.6228 µM	-0.291
100 µM	0.118

CCOC(=O)C(C)Oc1ccc(Oc2nc3ccc(Cl)cc3o2)cc1 (stereo not drawn) [Fenoxaprop-ethyl]
Details	LDH release cytotoxicity [%]
0.03162 µM	-2.02
0.1 µM	-2.51
0.3162278 µM	-2.8
1 µM	-2.59
3.16228 µM	-2.21
10 µM	-2.46
31.6228 µM	-1.44
100 µM	-1.21

CCOC(=O)NCCOc1ccc(Oc2ccccc2)cc1 [Fenoxycarb]
Details	LDH release cytotoxicity [%]
0.03162 µM	-2.3
0.1 µM	-2.15
0.3162278 µM	-2.2
1 µM	-2.52
3.16228 µM	-2.33
10 µM	-1.4
31.6228 µM	-2.64
100 µM	16.6

CC1(C)C(C(=O)OC(C#N)c2cccc(Oc3ccccc3)c2)C1(C)C (stereo not drawn) [Fenpropathrin]
Details	LDH release cytotoxicity [%]
0.03162 µM	-1.16
0.1 µM	-1.28
0.3162278 µM	0.259
1 µM	-1.32
3.16228 µM	-1.08
10 µM	-0.114
31.6228 µM	0.399
100 µM	1.44

Cc1nn(C)c(Oc2ccccc2)c1C=NOCc1ccc(C(=O)OC(C)(C)C)cc1 [Fenpyroximate (Z,E)]
Details	LDH release cytotoxicity [%]
0.03162 µM	-1.39
0.1 µM	-1.596
0.3162278 µM	-2.4
1 µM	-2.65
3.16228 µM	11
10 µM	17.19
31.6228 µM	20.7
100 µM	30.9

COP(=S)(OC)Oc1ccc(SC)c(C)c1 [Fenthion]
Details	LDH release cytotoxicity [%]
0.03162 µM	-0.428
0.1 µM	-0.733
0.3162278 µM	-0.879
1 µM	-0.217
3.16228 µM	-0.561
10 µM	0.173
31.6228 µM	0.52
100 µM	2.37

N#Cc1nn(-c2c(Cl)cc(C(F)(F)F)cc2Cl)c(N)c1S(=O)C(F)(F)F (stereo not drawn) [Fipronil]
Details	LDH release cytotoxicity [%]
0.0317809 µM	-1.15
0.1005 µM	-0.938
0.317809 µM	-1.37
1.005 µM	-2.05
3.17809 µM	-1.97
10.05 µM	-1.68
31.7809 µM	19.3
100.5 µM	59.8

CCCCOC(=O)C(C)Oc1ccc(Oc2ccc(C(F)(F)F)cn2)cc1 (stereo not drawn) [Fluazifop-P-butyl]
Details	LDH release cytotoxicity [%]
0.0317809 µM	-1.34
0.1005 µM	-0.704
0.317809 µM	-1.02
1.005 µM	-0.805
3.17809 µM	-1.3
10.05 µM	-0.416
31.7809 µM	0.0852
100.5 µM	-0.23

CCCCOC(=O)C(C)Oc1ccc(Oc2ccc(C(F)(F)F)cn2)cc1 (stereo not drawn) [Fluazifop-butyl]
Details	LDH release cytotoxicity [%]
0.03162 µM	-0.307
0.1 µM	-0.771
0.3162278 µM	-0.631
1 µM	-0.375
3.16228 µM	-0.996
10 µM	0.207
31.6228 µM	0.479
100 µM	1.84

O=[N+]([O-])c1cc(C(F)(F)F)c(Cl)c([N+](=O)[O-])c1Nc1ncc(C(F)(F)F)cc1Cl [Fluazinam]
Details	LDH release cytotoxicity [%]
0.03162 µM	-1.32
0.1 µM	-1.4
0.3162278 µM	-1.08
1 µM	-1.53
3.16228 µM	-1.12
10 µM	0.179
31.6228 µM	9.87
100 µM	55.8

OC(Cn1cncn1)(Cn1cncn1)c1ccc(F)cc1F [Fluconazole]
Details	LDH release cytotoxicity [%]
0.03162 µM	-1.56
0.1 µM	-0.0671
0.3162278 µM	0.556
1 µM	-0.472
3.16228 µM	0.965
10 µM	0.138
31.6228 µM	0.241
100 µM	0.712
